# Measurements from ChEMBL document CHEMBL1126181, “New nonpeptide angiotensin II receptor antagonists. 1. Synthesis, biological properties, and structure-activity relationships of 2-alkyl benzimidazole derivatives” (J Med Chem, 1992).
# Biological target: Type-1 angiotensin II receptor (Rattus norvegicus) (UniProt P25095)
# Assay: The compound was tested for Angiotensin II (AII) antagonist activity in vivo in an […], normotensive rat model upon intravenous administration
# Sequence of Type-1 angiotensin II receptor (Rattus norvegicus) (P25095 whole entry, looked up, the tested form may be a part): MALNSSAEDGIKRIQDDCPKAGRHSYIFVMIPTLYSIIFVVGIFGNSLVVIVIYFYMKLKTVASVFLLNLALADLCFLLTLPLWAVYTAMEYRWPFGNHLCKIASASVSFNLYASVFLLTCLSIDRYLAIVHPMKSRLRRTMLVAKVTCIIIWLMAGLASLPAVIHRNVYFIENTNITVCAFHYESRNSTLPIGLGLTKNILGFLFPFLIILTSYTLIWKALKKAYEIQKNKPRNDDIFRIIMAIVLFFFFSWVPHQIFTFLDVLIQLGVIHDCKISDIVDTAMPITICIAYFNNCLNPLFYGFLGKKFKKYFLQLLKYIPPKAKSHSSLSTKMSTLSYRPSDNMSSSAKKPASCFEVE
row,SMILES,ED50
1,CCCCc1nc2ccccc2n1Cc1ccc(C(=O)O)c(Br)c1,5 mg/kg
2,CCCCCCc1nc2ccccc2n1Cc1ccc(C(=O)O)cc1,> 20 mg/kg
3,CCCCc1nc2cc(F)ccc2n1Cc1ccc(C(=O)O)cc1,9.1 mg/kg

# Further lines, results first:
row,ED50,SMILES
1,16.1 mg/kg,CCCCc1nc2ccccc2n1Cc1ccc(C(=O)O)cc1OC
2,12.6 mg/kg,CCCCc1nc2ccccc2n1Cc1ccc(C(=O)O)cc1
3,11.1 mg/kg,CCCCc1nc2ccccc2n1Cc1ccc(C(=O)O)cc1Br

# Biological target: Type-1 angiotensin II receptor (Rattus norvegicus) (UniProt P25095)
# Assay: The compound was tested for Angiotensin II (AII) antagonist activity in vivo in an AII infused, normotensive rat model upon intravenous administration
row,ED50,SMILES
1,5.2 mg/kg,CCCCc1nc2ccccc2n1Cc1ccc(-c2ccccc2-c2nn[nH]n2)cc1
